# Assay results reported in ChEMBL document CHEMBL5244233 (Eur J Med Chem, 2020).
# Key:
# Rattus norvegicus [1] = species on record: Rattus norvegicus; test: Protection against LiCl-induced nausea in rat assessed as reduction in conditioned gaping; type: functional; conditions: read-out: MED
# MDA-MB-231 = test: Inhibition of cell migration in human MDA-MB-231 cells measured upto 48 hrs by transwell chamber assay; type: functional
# [2] = target: Cannabinoid receptor 1 (Mus musculus) (UniProt P47746); test: Antagonist activity at mouse brain membrane CB1 receptor assessed as stimulation of [35S]-GTPgammaS binding by measuring apparent dissociation constant incubated for 60 mins by liquid scintillation counting method; type: cell membranes; conditions: filed as antagonist
# DU-145 = test: Cytotoxicity against human DU-145 cells assessed as inhibition of cell growth incubated for 72 hrs by MTT assay; type: functional, cell-based; conditions: DU-145, 72 h
# [3] = Induction of apoptosis in gamma-irradiation induced human U87 cells by PI staining based flow cytometric analysis; type: functional, U-87MG ATCC; conditions: U-87 MG, light or radiation study, read-out: MEC
# [4] = Reduction of triglyceride level in mouse 3T3-L1 cells incubated for 3 days by AdipoRed staining based fluorescence analysis; type: functional; conditions: 3T3-L1, 72 h, time 3 day, read-out: MEC
# 4T1 = test: Cytotoxicity against mouse 4T1 cells assessed as inhibition of cell proliferation by MTT assay; type: functional, cell-based
# Caco-2 = test: Cytotoxicity against human Caco-2 cells assessed as reduction of cell viability incubated for 24 hrs by MTT assay; type: functional, cell-based; conditions: Caco-2, 24 h
# Cannabinoid receptor 1 = Cannabinoid receptor 1 (Rattus norvegicus, UniProt P20272); test: Displacement of [3H]HU243 from rat brain membrane CB1 receptor assessed as inhibition constant incubated for 90 mins; type: cell membranes
# Rattus norvegicus [5] = test: Protection against LiCl-induced nausea in ip dosed rat assessed as reduction in conditioned gaping; type: functional
# Sequence of Cannabinoid receptor 1 (P20272 whole entry): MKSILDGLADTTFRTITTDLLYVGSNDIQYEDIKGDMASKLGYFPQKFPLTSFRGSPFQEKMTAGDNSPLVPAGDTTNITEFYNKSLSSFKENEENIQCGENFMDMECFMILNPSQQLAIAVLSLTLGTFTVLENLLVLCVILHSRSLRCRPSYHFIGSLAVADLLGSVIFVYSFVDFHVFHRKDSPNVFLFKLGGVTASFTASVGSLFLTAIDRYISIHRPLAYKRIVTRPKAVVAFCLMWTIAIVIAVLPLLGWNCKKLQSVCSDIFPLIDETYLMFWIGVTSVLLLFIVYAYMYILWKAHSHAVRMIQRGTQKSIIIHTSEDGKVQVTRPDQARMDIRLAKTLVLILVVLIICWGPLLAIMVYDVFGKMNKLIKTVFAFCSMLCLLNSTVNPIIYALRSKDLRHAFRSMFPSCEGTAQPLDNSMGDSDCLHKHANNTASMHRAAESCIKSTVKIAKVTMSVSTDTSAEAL
# Sequence of Cannabinoid receptor 1 (Mus musculus) (P47746 whole entry): as the sequence (P20272 whole entry) above, with E95D counted along it
structure (smiles),measurement,setting,value
C=C(C)[C@@H]1CCC(C)=C[C@H]1c1c(O)cc(CCCCC)c(C(=O)O)c1O [CANNABIDIOLIC ACID],minimal effective dose,Rattus norvegicus [1],2.5 µg/kg
same,MIC,MDA-MB-231,≤ 5 µM
same,Kb,[2],1.8 µM
C=C(C)[C@@H]1CCC(C)=C[C@H]1c1c(O)cc(CCCCC)cc1O [CANNABIDIOL],IC50,DU-145,5.4 µM
same,minimal effective concentration,[3],≤ 5 µM
same,minimal effective concentration,[4],≤ 5 µM
same,IC50,4T1,1.8 µM
same,IC50,Caco-2,3.73 µM
C=C(C)[C@@H]1CCC(C)C[C@H]1c1c(O)cc(CCCCC)cc1O (stereo partly specified),Ki,Cannabinoid receptor 1,0.145 µM
C=C(C)[C@@H]1CCC(C)=C[C@H]1c1c(O)cc(CCC)cc1O [CANNABIDIVARIN],MED,Rattus norvegicus [5],200000 µg/kg
same,IC50,Caco-2,10.1 µM
